Reference: patent publication US6057348A (Oregon State University, priority 1998, dated 2000)
“Also recorded” adds a separate entry of the source.

Legend:
MCF-7 cells = assay: Inhibition of MCF-7 breast cancer cell growth (sulforhodamine B); type: cell-based; conditions: Homo sapiens, MCF7; 48 hours drug exposure; ± SD
Description: (§1) Electrophoretically homogeneous bovine brain tubulin was prepared as described previously (20). Nonradiolabeled colchicine was obtained from Sigma and [^3 H]colchicine from Dupont-NEN. Stock 2.0 M solutions of monosodium glutamate were adjusted to pH 6.6 with HCl. MCF-7 breast cancer cells were obtained from Dr. D. Scudiero, National Cancer Institute. Curacin A is referred to in the tables provided below, and was obtained as stated in Gerwick's U.S. Pat. No. 5,324,739. All data presented for curacin A represent averages obtained in contemporaneous experiments with natural and synthetic drug. All drugs were dissolved in dimethyl sulfoxide, and control reaction mixtures contained an equivalent amount of the solvent.
IC50 values for inhibition of cell growth were obtained by measuring the amount of total cell protein with the sulforhodamine B assay as described by Skehan et al., "New Colorimetric Cytotoxicity Assay for Anticancer-drug Screening," J. Natl. Cancer Inst., 82:1107-1112 (1990). MCF-7 cells were grown in RPMI 1640 medium containing 17% fetal calf serum, 12 μg/mL gentamicin sulfate and 2 mM glutamine at 37° in 5% CO2. Confluent cells were trypsinized, diluted 40-fold, and seeded into 96-well microtiter plates. After 24 hours of growth without drug, medium with varying concentrations of drug was added to different wells (final concentration of dimethyl sulfoxide, 0.1%). […] The values presented are averages from at least two independent experiments.
(§2) The R1 -R3 substituents referred to in Table 1 are with reference to Formula 11, which, for convenience, is reproduced above Table 1. [drawing 13]

tubulin [1] = assay: Inhibition of tubulin polymerization (turbidimetric, 350 nm); type: biochemical, bovine; conditions: 1.0 mg/mL tubulin, 0.8 M glutamate, 30°, 20 minutes; ± SD
Description: as §1
Tubulin polymerization was followed turbidimetrically at 350 nm in Gilford model 250 spectrophotometers equipped with electronic temperature controllers. All concentrations refer to the final reaction volume of 0.25 mL, although the preincubation was performed in 0.24 mL, followed by addition of 10 μL of 10 mM GTP. Reaction mixtures contained 1.0 mg/mL tubulin, 0.8 M monosodium glutamate, 4% dimethyl sulfoxide and varying drug concentrations. Samples were preincubated for 15 minutes at 30° and chilled on ice. GTP was added to each reaction mixture, and these were placed in cuvettes held at 0°. Baselines were established, the temperature was raised to 30° (at a rate of about 0.5°/sec), and polymerization was followed for 20 minutes. IC50 values were determined by graphical interpolation of experimental points, with drug-containing samples compared to control reaction mixtures containing dimethyl sulfoxide but no drug. At least three independent IC50 values were obtained with each compound.
as §2

tubulin [2] = assay: Inhibition of [3H]colchicine binding to tubulin (DEAE-cellulose filter method); design: species or system bovine; conditions: 5.0 μM [3H]colchicine, 1.0 μM tubulin; for Inhibition of Colchicine Binding % Inhibition ± SD: inhibitor 5.0 μM; for Inhibition of Colchicine Binding % Inhibition ± SD (values in parentheses): inhibitor 50 μM
Description: as §1
The binding of [^3 H]colchicine to tubulin was measured by the DEAE-cellulose filter method as described by Kang et al., "N-acetylcolchinol O-methyl Ether and Thiocolchicine, Potent Analogs of Colchicine Modified in the C Ring: Evaluation of the Mechanistic Basis for Their Enhanced Biological Properties," J. Biol. Chem. 265:10255-1-259 (1990). Reaction mixtures contained 1.0 μM (0.1 mg/mL) tubulin, 1.0 M monosodium glutamate, 0.1 M glucose-1-phosphate, 1.0 mM MgCl2, 1.0 mM GTP, 0.5 mg/mL bovine serum albumin, 5% (v/v) dimethyl sulfoxide, 5.0 μM [^3 H]colchicine and inhibitor at either 5.0 or 50 μM as indicated. These reaction conditions were used because they strongly stabilize the colchicine binding activity of tubulin. The values presented represent averages of three experiments, each with duplicate samples.
as §2

[3] = Chemical stability on storage neat
microtubule assembly = conditions: background; cited from earlier work
[4] = system: colchicine site of tubulin; conditions: background; cited from earlier work
microtubule ends = conditions: low concentrations; background; cited from earlier work
antimitotic activity = assay: Biological activity of isolated curacins; conditions: various tests
cell growth and mitosis = conditions: background; cited from earlier work
[5] = stored neat; cited from earlier work
tubulin [6] = conditions: background; cited from earlier work
β-tubulin = conditions: background; cited from earlier work
brine shrimp = conditions: Example 1 of U.S. Pat. No. 5,324,739; cited from earlier work
[7] = system: 60 different human tumor cell lines; assay: NCI 60-cell line screen / mode of action of curazole; type: cell-based; conditions: COMPARE mean-graph profiles / 60-cell line assay
Description: In these examples, curazole was subjected to the drug screening procedure employed by the National Cancer Institute for the screening of drugs having possible anticancer utility. The screening procedure employed a diverse, disease-oriented panel consisting of 60 different human tumor cell lines organized into seven disease-specific subpanels. Curazole was tested over a wide range of concentrations for cytotoxic or growth-inhibitory effects against each cell line comprising the panel. The seven subpanels represented diverse histologies (leukemias, melanomas, and tumors of the lung, colon, kidney, ovary, and brain).
Curazole was tested over a period of several days. During this period the cells were continuously exposed to five log10 -spaced concentrations of the drug starting at about 10^-4 μg/mL. The tests produced 60 individual dose-response curves, one for each cell line (i.e., one for each example).
To produce data for the mean-graph format shown in FIG. 2, a concentration of the extract that produced a target level response was calculated for each cell line. Three different response parameters were evaluated. […] The second response parameter was the total growth inhibition ("TGI"), which is the concentration at which the number of tumor cells remaining at the end of the incubation period substantially equaled the number of tumor cells existing at the start of the incubation period. […]

C=CCCc1nc(/C=C\CC/C=C/C=C(\C)CC[C@H](CC=C)OC)cs1 [1-butene derivative]
IC50 (MCF-7 cells): 300 ± 200 nM
IC50 (tubulin [1]): 920 ± 200 nM
Inhibition of Colchicine Binding % Inhibition ± SD (tubulin [2]): 83 ± 6%

CCC[C@@H](CC/C(C)=C/C=C/CCCC[C@@H]1CSC([C@@H]2C[C@@H]2C)=N1)OC [C3,4,15,16 Tetrahydro, 3,4,15,16-tetrahydrocuracin A]
IC50 (MCF-7 cells): 3300 ± 2000 nM
IC50 (tubulin [1]): 4600 ± 1000 nM
Inhibition of Colchicine Binding % Inhibition ± SD (tubulin [2]): 1 ± 1%
Inhibition of Colchicine Binding % Inhibition ± SD (values in parentheses) (tubulin [2]): 28 ± 6%

C=CCC1(CC/C(C)=C/C=C/CC/C=C\[C@@H]2CSC([C@@H]3C[C@@H]3C)=N2)OCCO1 [C13 Ethylene-dioxy]
IC50 (MCF-7 cells): 30 ± 10 nM
IC50 (tubulin [1]): 780 ± 300 nM
Inhibition of Colchicine Binding % Inhibition ± SD (tubulin [2]): 92 ± 1%

C=CC[C@H](O)CC/C(C)=C/C=C/CC/C=C\[C@@H]1CSC([C@H]2C[C@@H]2C)=N1 [C13 Hydroxyl, Epi C19]
IC50 (MCF-7 cells): 610 ± 200 nM
IC50 (tubulin [1]): 730 ± 100 nM
Inhibition of Colchicine Binding % Inhibition ± SD (tubulin [2]): 71 ± 5%

C=CC[C@H](O)CC/C(C)=C/C=C/CC/C=C\[C@@H]1CSC([C@@H]2C[C@@H]2C)=N1 [C13 Hydroxyl]
IC50 (MCF-7 cells): 450 ± 20 nM
IC50 (tubulin [1]): 870 ± 90 nM
Inhibition of Colchicine Binding % Inhibition ± SD (tubulin [2]): 82 ± 7%

C=CC[C@@H](CC/C(C)=C/C=C/CC/C=C\[C@@H]1CSC([C@H]2C[C@@H]2C)=N1)OCOC [C13 Methyl-methoxy, Epi C19]
IC50 (MCF-7 cells): 3100 ± 2000 nM
IC50 (tubulin [1]): 3200 ± 300 nM
Inhibition of Colchicine Binding % Inhibition ± SD (tubulin [2]): 16 ± 3%
Inhibition of Colchicine Binding % Inhibition ± SD (values in parentheses) (tubulin [2]): 32 ± 4%

C=CC[C@@H](CC/C(C)=C/C=C/CC/C=C\[C@@H]1CSC([C@@H]2C[C@@H]2C)=N1)OCOC [C13 Methyl-methoxy]
IC50 (MCF-7 cells): 220 nM
IC50 (tubulin [1]): 640 ± 200 nM
Inhibition of Colchicine Binding % Inhibition ± SD (tubulin [2]): 81 ± 6%

CCC[C@@H](CC/C(C)=C/C=C/CC/C=C\[C@@H]1CSC([C@@H]2C[C@@H]2C)=N1)OC [C15,16-dihydro]
IC50 (MCF-7 cells): 46 nM
IC50 (tubulin [1]): 1200 ± 200 nM
Inhibition of Colchicine Binding % Inhibition ± SD (tubulin [2]): 85 ± 7%

C=CC[C@@H](CC/C(C)=C/C=C/CC/C=C\[C@@H]1CSC([C@@H]2C[C@@H]2C)=N1)OC [Curacin A]
stability ([3]; particularly when stored neat): limited stability
biological activity after storage neat ([3]; stored neat versus stored under a solvent): less biological activity than curacin A stored under a solvent
inhibition of microtubule assembly (microtubule assembly): inhibits microtubule assembly
IC50 (MCF-7 cells): 38 ± 10 nM
IC50 (tubulin [1]): 720 ± 200 nM
binding at colchicine site of tubulin [4]: binding rapidly and dissociating slowly from tubulin; also recorded: binding rapidly and tightly at the colchicine site of tubulin
inhibition of the binding of colchicine to tubulin [4]: potent competitive inhibitor of the binding of colchicine to tubulin
Inhibition of Colchicine Binding % Inhibition ± SD (tubulin [2]): 94 ± 2%
tubulin turnover at microtubule ends (microtubule ends): increase tubulin turnover at microtubule ends
biological activity, particularly antimitotic activity (antimitotic activity): substantial biological activity, particularly antimitotic activity
inhibition of cell growth and mitosis (cell growth and mitosis): potent inhibitor of cell growth and mitosis
chemical stability [5]: limited chemical stability
uncoupled GTPase reaction (tubulin [6]): stimulated the uncoupled GTPase reaction
formation of the cys239-cys354 cross link (β-tubulin): inhibits formation of the cys239-cys354 cross link
effectiveness for reducing a population of arthropods (brine shrimp) (brine shrimp): effectiveness

C=CC[C@@H](CC/C(C)=C/C=C\CC/C=C\[C@@H]1CSC([C@@H]2C[C@@H]2C)=N1)OC [Curacin B]
biological activity, particularly antimitotic activity (antimitotic activity): substantial biological activity, particularly antimitotic activity

C=CC[C@@H](CC/C(C)=C\C=C\CC/C=C\[C@@H]1CSC([C@@H]2C[C@@H]2C)=N1)OC [Curacin C]
biological activity, particularly antimitotic activity (antimitotic activity): substantial biological activity, particularly antimitotic activity

C=CC[C@@H](CC/C=C/C=C/CC/C=C\[C@@H]1CSC([C@@H]2C[C@@H]2C)=N1)OC [Curacin D]
IC50 (MCF-7 cells): 340 ± 100 nM
Inhibition of Colchicine Binding % Inhibition ± SD (tubulin [2]): 53 ± 10%
biological activity, particularly antimitotic activity (antimitotic activity): substantial biological activity, particularly antimitotic activity

C=CC[C@@H](CC/C(C)=C/C=C/CC/C=C\c1csc([C@@H]2C[C@@H]2C)n1)OC [Curazole, [13R,19R,21S]-1,2-didehydrocuracin A]
IC50 (MCF-7 cells): 300 ± 70 nM
IC50 (tubulin [1]): 740 ± 10 nM
Inhibition of Colchicine Binding % Inhibition ± SD (tubulin [2]): 74 ± 11%
mode of action [7]: functions as an antimitotic and has a mode of action similar to a number of conventional antineoplastics
